Where a SMILES comes first, the peptide text is derived from it. Bridges are numbered along the chain shown (N, C = ends).
What was measured:
[1] = test system: healthy subjects; conditions: in vivo
Experimental: A Phase 1a/1b, randomized, placebo-controlled, crossover study with the peptide [sequence] (SEQ ID NO: 1) in healthy subjects was performed. The study population included men and women in good general health.
A single ascending dose (SAD) group included four cohorts receiving 60 mg/day (cohorts SAD1 and SAD2), 180 mg/day (cohort SAD3), or 540 mg/day (cohort SAD4) of the peptide or placebo. […] All doses were administered orally. […] Seven days after the end of dosing, this group was then switched to receiving placebo once a day for seven days, followed by another 24-hour period of sleep deprivation. then crossing to 540 mg of peptide once a day for 7 days. In another group (n=7, with one participant withdrawing after initiation for personal reasons), the inverse dose regimen was used, with participants starting with placebo and the crossing over to 540 mg of peptide once a day.

[2] = test system: mouse; test: Tail suspension test (TST) with vasopressin receptor inhibitors (Example 1); format: in vivo
Description: NO: 1) is either AVPR1A or AVPR2 (FIGS. 1-2).

[3] = test system: mouse; test: Mouse tail suspension test with felypressin (Example 5); format: in vivo
Experimental: The effect of orally administered felypressin, a selective AVPR1A agonist, on antidepressant activity in the mouse tail suspension test was evaluated. Felypressin at 0.03 mg/kg, 0.1 mg/kg, and 0.3 mg/kg was compared to the peptide […] (SEQ ID NO: 1) at 0.3 mg/kg (n=6 per group). The effect of orally administered felypressin (0.1 mg/kg) was also compared to the effect of orally administered felypressin (0.1 mg/kg) plus the AVPR1A/AVPR2 inhibitor conivaptan (3 mg/kg) (n=7 per group).

[4] = test system: mouse; test: Mouse tail suspension test with desmopressin (Example 6); format: in vivo; conditions: oral desmopressin 0.03, 0.1, 0.3, 1.0 mg/kg vs felypressin 0.1 mg/kg
Experimental: Desmopressin at 0.03 mg/kg, 0.1 mg/kg, and 0.3 mg/kg was compared to felypressin at 0.1 mg/kg (n=6 per group) in a first study. Desmopressin at 0.1 mg/kg, 0.3 mg/kg, and 1.0 mg/kg was compared to felypressin at 0.1 mg/kg (n=6 per group) in a first study.

CC(C)C[C@H](N)C(=O)N[C@@H](CO)C(=O)N[C@@H](CO)C(=O)N[C@H](C(=O)N[C@@H](CCC(N)=O)C(=O)N[C@@H](C)C(=O)N[C@@H](CCC(N)=O)C(=O)N[C@@H](CCC(N)=O)C(=O)N[C@@H](CO)C(=O)N[C@@H](Cc1ccc(O)cc1)C(=O)O)[C@@H](C)O [LSSTQAQQSY (SEQ ID NO: 1), LSSTQAQQSY] (H-LSSTQAQQSY-OH; N-terminus and C-terminus assumed) was tested, and the “Vital signs, electrocardiography (ECG) data, and physical examinations” value [1] was “normal”.
In the case of Cc1nc2c([nH]1)-c1ccccc1N(C(=O)c1ccc(NC(=O)c3ccccc3-c3ccccc3)cc1)CC2 [conivaptan], the “Blocking of LSSTQAQQSY (SEQ ID NO: 1) activity in a tail suspension test (reduced TST immobility)” value ([2]; low doses of inhibitor) is reported as “blocks”, the “Blocking of LSSTQAQQSY (SEQ ID NO: 1) activity in a tail suspension test (reduced TST immobility)” value ([2]; mouse, in vivo) is reported as “blocks” and the “Blocking of felypressin activity in the tail suspension test” value ([3]; oral felypressin 0.1 mg/kg plus conivaptan 3 mg/kg) is reported as “blocks”.
In the case of NC(=O)CC[C@@H]1NC(=O)[C@H](Cc2ccccc2)NC(=O)[C@H](Cc2ccc(O)cc2)NC(=O)CCSSC[C@@H](C(=O)N2CCC[C@H]2C(=O)N[C@H](CCCN=C(N)N)C(=O)NCC(N)=O)NC(=O)[C@H](CC(N)=O)NC1=O [desmopressin, 1-desamino-8-D-arginyl vasopressin], the “Antidepressant activity in the mouse tail suspension test, compared to felypressin” value [4] is reported as “less of an effect than felypressin”.
For NCCCC[C@H](NC(=O)[C@@H]1CCCN1C(=O)[C@@H]1CSSC[C@H](N)C(=O)N[C@@H](Cc2ccccc2)C(=O)N[C@@H](Cc2ccccc2)C(=O)N[C@@H](CCC(N)=O)C(=O)N[C@@H](CC(N)=O)C(=O)N1)C(=O)NCC(N)=O [felypressin] (H-CFFQNCPKG-NH2; disulfide 1-6), the “Antidepressant activity in the mouse tail suspension test” value ([3]; orally administered, 0.03, 0.1 and 0.3 mg/kg) was “induces an antidepressant effect”.
In the case of COc1ccc(S(=O)(=O)N2C(=O)[C@@](c3ccccc3OC)(N3C[C@H](O)C[C@H]3C(=O)N(C)C)c3cc(Cl)ccc32)c(OC)c1 [nelivaptan], the “Blocking of LSSTQAQQSY (SEQ ID NO: 1) activity in a tail suspension test (reduced TST immobility)” value ([2]; mouse, in vivo) is reported as “blocks”.
For Cc1ccccc1C(=O)Nc1ccc(C(=O)N2CCCC(O)c3cc(Cl)ccc32)c(C)c1 (centres unmarked) [tolvaptan], the “Blocking of LSSTQAQQSY (SEQ ID NO: 1) activity in a tail suspension test (reduced TST immobility)” value ([2]; mouse, in vivo) was “does not block”.
